Measured values reported in ChEMBL document CHEMBL3885881, “DrugMatrix”.

Species on record: Rattus norvegicus
Assay: DrugMatrix - Regimen: Daily Repeat
Assay type: toxicity, organism-based, Sprague-Dawley
Design: regimen Daily Repeat, gender Male, age 6-8 weeks
Settings: in vivo, po, route oral GAVAGE, vehicle 100 % WATER; for ABSOLUTE BASOPHIL / ABSOLUTE EOSINOPHIL / ABSOLUTE LYMPHOCYTE / ABSOLUTE MONOCYTE / ABSOLUTE SEGMENTED NEUTROPHIL / BASOPHIL / EOSINOPHIL / ERYTHROCYTE COUNT / HEMATOCRIT / HEMOGLOBIN / LEUKOCYTE COUNT / LYMPHOCYTE / MEAN CORPUSCULAR HEMOGLOBIN / MEAN CORPUSCULAR HEMOGLOBIN CONCENTRATION / MEAN CORPUSCULAR VOLUME / MONOCYTE / NEUTROPHIL / NUCLEATED RED BLOOD CELLS / PLATELET COUNT: tissue Blood; for ALANINE AMINOTRANSFERASE / ALBUMIN / ALKALINE PHOSPHATASE / ASPARTATE AMINOTRANSFERASE / BLOOD UREA NITROGEN / CARBON DIOXIDE / CHLORIDE / CHOLESTEROL / CREATINE PHOSPHOKINASE / CREATININE / GLUCOSE / LACTATE DEHYDROGENASE / LIPASE / PHOSPHORUS / POTASSIUM / SODIUM / TOTAL BILIRUBIN / TOTAL PROTEIN / URIC ACID: tissue Plasma
[1] = 20 mg/kg, 72 h, dose level Low, time 3 day
[2] = 20 mg/kg, 120 h, dose level Low, time 5 day
[3] = 688 mg/kg, 72 h, dose level High, time 3 day
[4] = 688 mg/kg, 120 h, dose level High, time 5 day

SMILES: COc1ccc(CN(CCN(C)C)c2ccccn2)cc1 [PYRILAMINE]
- ABSOLUTE BASOPHIL [1]: 0 CELLS/uL
- ABSOLUTE EOSINOPHIL [1]: 0 CELLS/uL
- ABSOLUTE LYMPHOCYTE [1]: 6764.67 CELLS/uL
- ABSOLUTE MONOCYTE [1]: 0 CELLS/uL
- ABSOLUTE SEGMENTED NEUTROPHIL [1]: 435.33 CELLS/uL
- BASOPHIL [1]: 0%
- EOSINOPHIL [1]: 0%
- ERYTHROCYTE COUNT [1]: 5.22 x10E6/uL
- HEMATOCRIT [1]: 33.7%
- HEMOGLOBIN [1]: 13.67 G/DL
- LEUKOCYTE COUNT [1]: 7.2 x10E3/uL
- LYMPHOCYTE [1]: 93.67%
- MEAN CORPUSCULAR HEMOGLOBIN [1]: 26.2 pg
- MEAN CORPUSCULAR HEMOGLOBIN CONCENTRATION [1]: 40.57 G/DL
- MEAN CORPUSCULAR VOLUME [1]: 64.53 fL
- MONOCYTE [1]: 0%
- NEUTROPHIL [1]: 6.33%
- NUCLEATED RED BLOOD CELLS [1]: 0 /100WBC
- PLATELET COUNT [1]: 1037.67 x10E3/uL
- ALANINE AMINOTRANSFERASE [1]: 45.67 u/L
- ALBUMIN [1]: 4.37 G/DL
- ALKALINE PHOSPHATASE [1]: 340.33 u/L
- ASPARTATE AMINOTRANSFERASE [1]: 91.33 u/L
- BLOOD UREA NITROGEN [1]: 16.67 mg/dL
- CARBON DIOXIDE [1]: 33.67 mmol/L
- CHLORIDE [1]: 98.33 MEQ/L
- CHOLESTEROL [1]: 83 mg/dL
- CREATINE PHOSPHOKINASE [1]: 408.33 u/L
- CREATININE [1]: 0.23 mg/dL
- GLUCOSE [1]: 112.67 mg/dL
- LACTATE DEHYDROGENASE [1]: 148.67 u/L
- LIPASE [1]: 10.33 u/L
- PHOSPHORUS [1]: 11.07 mg/dL
- POTASSIUM [1]: 6.81 MEQ/L
- SODIUM [1]: 145.13 MEQ/L
- TOTAL BILIRUBIN [1]: 0.2 mg/dL
- TOTAL PROTEIN [1]: 6.37 G/DL
- URIC ACID [1]: 0.83 mg/dL
- ABSOLUTE BASOPHIL [2]: 0 CELLS/uL
- ABSOLUTE EOSINOPHIL [2]: 0 CELLS/uL
- ABSOLUTE LYMPHOCYTE [2]: 14373.33 CELLS/uL
- ABSOLUTE MONOCYTE [2]: 89.33 CELLS/uL
- ABSOLUTE SEGMENTED NEUTROPHIL [2]: 1937.33 CELLS/uL
- BASOPHIL [2]: 0%
- EOSINOPHIL [2]: 0%
- ERYTHROCYTE COUNT [2]: 5.38 x10E6/uL
- HEMATOCRIT [2]: 33.67%
- HEMOGLOBIN [2]: 13.67 G/DL
- LEUKOCYTE COUNT [2]: 16.4 x10E3/uL
- LYMPHOCYTE [2]: 88.33%
- MEAN CORPUSCULAR HEMOGLOBIN [2]: 25.47 pg
- MEAN CORPUSCULAR HEMOGLOBIN CONCENTRATION [2]: 40.63 G/DL
- MEAN CORPUSCULAR VOLUME [2]: 62.73 fL
- MONOCYTE [2]: 0.67%
- NEUTROPHIL [2]: 11%
- NUCLEATED RED BLOOD CELLS [2]: 0 /100WBC
- PLATELET COUNT [2]: 1183.67 x10E3/uL
- ALANINE AMINOTRANSFERASE [2]: 53.33 u/L
- ALBUMIN [2]: 4.13 G/DL
- ALKALINE PHOSPHATASE [2]: 437.33 u/L
- ASPARTATE AMINOTRANSFERASE [2]: 80.67 u/L
- BLOOD UREA NITROGEN [2]: 17 mg/dL
- CARBON DIOXIDE [2]: 28.67 mmol/L
- CHLORIDE [2]: 104.67 MEQ/L
- CHOLESTEROL [2]: 64.33 mg/dL
- CREATINE PHOSPHOKINASE [2]: 242 u/L
- CREATININE [2]: 0.17 mg/dL
- GLUCOSE [2]: 160 mg/dL
- LACTATE DEHYDROGENASE [2]: 86.33 u/L
- LIPASE [2]: 8.67 u/L
- PHOSPHORUS [2]: 14.2 mg/dL
- POTASSIUM [2]: 6.63 MEQ/L
- SODIUM [2]: 147.07 MEQ/L
- TOTAL BILIRUBIN [2]: 0.17 mg/dL
- TOTAL PROTEIN [2]: 6 G/DL
- URIC ACID [2]: 1.7 mg/dL
- ABSOLUTE BASOPHIL [3]: 0 CELLS/uL
- ABSOLUTE EOSINOPHIL [3]: 0 CELLS/uL
- ABSOLUTE LYMPHOCYTE [3]: 13165.67 CELLS/uL
- ABSOLUTE MONOCYTE [3]: 0 CELLS/uL
- ABSOLUTE SEGMENTED NEUTROPHIL [3]: 1201 CELLS/uL
- BASOPHIL [3]: 0%
- EOSINOPHIL [3]: 0%
- ERYTHROCYTE COUNT [3]: 5.73 x10E6/uL
- HEMATOCRIT [3]: 34.93%
- HEMOGLOBIN [3]: 14.1 G/DL
- LEUKOCYTE COUNT [3]: 14.37 x10E3/uL
- LYMPHOCYTE [3]: 91.67%
- MEAN CORPUSCULAR HEMOGLOBIN [3]: 24.63 pg
- MEAN CORPUSCULAR HEMOGLOBIN CONCENTRATION [3]: 40.37 G/DL
- MEAN CORPUSCULAR VOLUME [3]: 61.07 fL
- MONOCYTE [3]: 0%
- NEUTROPHIL [3]: 8.33%
- NUCLEATED RED BLOOD CELLS [3]: 0 /100WBC
- PLATELET COUNT [3]: 1288.33 x10E3/uL
- ALANINE AMINOTRANSFERASE [3]: 50.67 u/L
- ALBUMIN [3]: 4.27 G/DL
- ALKALINE PHOSPHATASE [3]: 466 u/L
- ASPARTATE AMINOTRANSFERASE [3]: 87.67 u/L
- BLOOD UREA NITROGEN [3]: 12.33 mg/dL
- CARBON DIOXIDE [3]: 34 mmol/L
- CHLORIDE [3]: 100.67 MEQ/L
- CHOLESTEROL [3]: 65.67 mg/dL
- CREATINE PHOSPHOKINASE [3]: 183.33 u/L
- CREATININE [3]: 0.13 mg/dL
- GLUCOSE [3]: 155.33 mg/dL
- LACTATE DEHYDROGENASE [3]: 142 u/L
- LIPASE [3]: 9 u/L
- PHOSPHORUS [3]: 13.33 mg/dL
- POTASSIUM [3]: 6.65 MEQ/L
- SODIUM [3]: 145.23 MEQ/L
- TOTAL BILIRUBIN [3]: 0.1 mg/dL
- TOTAL PROTEIN [3]: 5.8 G/DL
- URIC ACID [3]: 1.7 mg/dL
- ABSOLUTE BASOPHIL [4]: 0 CELLS/uL
- ABSOLUTE EOSINOPHIL [4]: 82 CELLS/uL
- ABSOLUTE LYMPHOCYTE [4]: 13712.5 CELLS/uL
- ABSOLUTE MONOCYTE [4]: 237 CELLS/uL
- ABSOLUTE SEGMENTED NEUTROPHIL [4]: 1918.5 CELLS/uL
- BASOPHIL [4]: 0%
- EOSINOPHIL [4]: 0.5%
- ERYTHROCYTE COUNT [4]: 6.11 x10E6/uL
- HEMATOCRIT [4]: 37.55%
- HEMOGLOBIN [4]: 14.85 G/DL
- LEUKOCYTE COUNT [4]: 15.95 x10E3/uL
- LYMPHOCYTE [4]: 86%
- MEAN CORPUSCULAR HEMOGLOBIN [4]: 24.3 pg
- MEAN CORPUSCULAR HEMOGLOBIN CONCENTRATION [4]: 39.6 G/DL
- MEAN CORPUSCULAR VOLUME [4]: 61.35 fL
- MONOCYTE [4]: 1.5%
- NEUTROPHIL [4]: 12%
- NUCLEATED RED BLOOD CELLS [4]: 0 /100WBC
- PLATELET COUNT [4]: 1201.5 x10E3/uL
- ALANINE AMINOTRANSFERASE [4]: 60.5 u/L
- ALBUMIN [4]: 4.45 G/DL
- ALKALINE PHOSPHATASE [4]: 346.5 u/L
- ASPARTATE AMINOTRANSFERASE [4]: 96 u/L
- BLOOD UREA NITROGEN [4]: 14.5 mg/dL
- CARBON DIOXIDE [4]: 35.5 mmol/L
- CHLORIDE [4]: 99 MEQ/L
- CHOLESTEROL [4]: 60 mg/dL
- CREATINE PHOSPHOKINASE [4]: 292 u/L
- CREATININE [4]: 0.24 mg/dL
- GLUCOSE [4]: 142 mg/dL
- LACTATE DEHYDROGENASE [4]: 333.5 u/L
- LIPASE [4]: 11 u/L
- PHOSPHORUS [4]: 13.2 mg/dL
- POTASSIUM [4]: 6.7 MEQ/L
- SODIUM [4]: 146.5 MEQ/L
- TOTAL BILIRUBIN [4]: 0.15 mg/dL
- TOTAL PROTEIN [4]: 6 G/DL
- URIC ACID [4]: 2 mg/dL
